Results: patent US5124313A, “Methods of improved skin care and the treatment of dermatological conditions” (priority 1989, dated 1992)
Like-named read-outs stand apart in the source and are kept apart here.

What was measured:
[1] = present practices of use and concentration; cited from earlier work
[2] = cited from earlier work; for allergic responses / skin irritation / sensitization: human, in vivo
[3] = test system: fetuses; settings: rat; topical administration to the mother; cited from earlier work
[4] = test system: fetuses; settings: rabbit; topical administration to the mother; cited from earlier work
[5] = topical; cited from earlier work
[6] = human, in vivo
Experimental: Ten subjects, 4 females and 6 males, ranging in age from 18 to 27 years participated with informed consent.
The products were applied to alternate inner wrist surfaces, in areas of 2.5×1.0 cm, rubbed into the skin for aproximately 5-10 seconds, using a gloved finger as an applicator and applying equal pressure in all applications. […] Mixing, applications and assays were performed in subdued light in order to decrease photodecomposition. The application sites were loosely covered with protective aluminum foil. After 30 minutes of exposure, the surface products were removed by rinsing with alcohol followed by air-drying. A strip of 3M Tape was then applied to the application site in a slightly larger rectangle than the site and removed. This stripping process was repeated for a total of 15 times and was designed to removed the entire stratum corneum. The combined strips were eluted with methanol and the eluates were assayed for RP by HPLC, using a Lichrosorb Si 60/5 micron column, after separation and saponification according to a modified USP XXI procedure.

[7] = In vitro water/solvent partitioning (dispersion, centrifugation, HPLC of supernatant); type: physicochemical
Experimental: The method s for determining in vitro water/solvent partitioning was as follows:
Individual dispersions of the above were prepared in the following solvents:
(1) Distilled water at 23° C.
(2) Distilled water at 70° C.
The dispersions were made under nitrogen and protected from light, using high shear agitation to yield particles of less than 0.5 u in diameter. The concentrations in each case were calculated to yield 4,000 i.u. per ml. The dispersions were centrifuged until clear supernatant liquids were obtained. Aliquouts of 50 uL of the clear supernatants were injected into the HPLC columns and the resulting peaks were evaluated, using a methanol solution of retinyl palmitate as the standard.

[8] = n-Hexane at 250° C. (so in the source), dispersion calculated to 4,000 i.u. per ml
[9] = n-Hexane, dispersion calculated to 4,000 i.u. per ml

CC(C=CC1=C(C)CCCC1(C)C)=CC=CC(C)=CCO [retinol, 3,7-dimethyl-9-(2,6,6-trimethyl-1-cyclohexen-1-yl)-2,4,6,8-nonatetraen-1-ol]
safety as cosmetic ingredient [1]: safe as cosmetic ingredients

CC1=C(/C=C/C(C)=C/C=C/C(C)=C\C(=O)O)C(C)(C)CCC1 [Accutane®, 13-cis-Retinoic acid]
birth defects ([2]; children of women treated during pregnancy): extensive birth defects in children of women treated with the drug during pregnancy
allergic responses / skin irritation / sensitization [2]: Allergic responses have also been reported

CC1=C(/C=C/C(C)=C/C=C/C(C)=C/C(=O)O)C(C)(C)CCC1 [Tretinoin, All-trans-retinoic acid]
fetal abnormalities [3]: abnormalities in rat and rabbit fetuses
fetal abnormalities [4]: abnormalities in rat and rabbit fetuses
treatment of photoaged skin [5]: effective for the treatment of photoaged skin
allergic responses / skin irritation / sensitization [2]: severe skin irritation, sensitization and allergic responses

CCCCCCCCCCCCCCCC(=O)OC/C=C(C)/C=C/C=C(C)/C=C/C1=C(C)CCCC1(C)C [RP, retinyl palmitate]
% Retinyl Palmitate Absorbed, average +/- Std. Deviation [6]: 0.84 +/- 0.21%
solubility in n-hexane (in words) [7]: good solubility
solubility in water (in words) [7]: no solubility in water
Absorption, both HPLC peaks (or absence of peak) ([7]; Water at 23° C., dispersion calculated to 4,000 i.u. per ml): No peak
Absorption, both HPLC peaks (or absence of peak) ([7]; Water at 70° C., dispersion calculated to 4,000 i.u. per ml): No Peak
Absorption, both HPLC peaks (or absence of peak) [7, 8]: 0.10
HPLC Peak #2 [7, 8]: 0.070
Absorption equivalent [7, 9]: ~4,000 i.u.
HPLC Peak #1 [7, 9]: 0.031
partitioning / migration into water and hexane (in words) ([7]; water and hexane): no migration into water with some fractionation into hexane
safety as cosmetic ingredient [1]: safe as cosmetic ingredients
